# Reference: PubChem BioAssay (NCI)
# Several values for one entry are separate records, joined by “and”; a condition that tells them apart may be missing. Equal values may be shown once.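 1) Cells in 96-well plates. 2) Compound, 48 h, 5 concentrations. 3) Linear interpolation between surrounding doses. 4) Unreached endpoint = highest concentration. The concentration for 50% growth inhibition is given as GI50. TGI marks complete inhibition of growth.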
# Legend:
# Experiment in all cases: DTP human tumour cell line panel, 48 h
# CAKI-1 renal = system: CAKI-1 renal
# HCT-116 colon = system: HCT-116 colon
# KM12 colon = system: KM12 colon
# MALME-3M melanoma = system: MALME-3M melanoma
# SF-268 CNS = system: SF-268 CNS
# SK-MEL-5 melanoma = system: SK-MEL-5 melanoma
# DU-145 prostate = system: DU-145 prostate
# HOP-92 NSCLC = system: HOP-92 NSCLC
Structure (SMILES),GI50 (CAKI-1 renal) [µM],TGI (CAKI-1 renal),GI50 (HCT-116 colon) [µM],TGI (HCT-116 colon) [µM],GI50 (KM12 colon) [µM],TGI (KM12 colon),GI50 (MALME-3M melanoma) [µM],TGI (MALME-3M melanoma),GI50 (SF-268 CNS) [µM],TGI (SF-268 CNS) [µM],GI50 (SK-MEL-5 melanoma) [µM],TGI (SK-MEL-5 melanoma),GI50 (DU-145 prostate) [µM],TGI (DU-145 prostate),GI50 (HOP-92 NSCLC) [µM],TGI (HOP-92 NSCLC) [µM]
COc1cc2c(c(OC)c1OC)-c1c(c3ccc([N+](=O)[O-])cc3c(=O)n1CCCBr)C2=O,13.4,61.3 µM,18.7,> 100,60.7,> 100 µM,11.4,47.6 µM,4.83,45.8,19.8,65.8 µM,–,–,–,–
CN[C@@H](Cc1cccc2ccccc12)C(=O)N[C@@H](CC(C)C)B(O)O,–,0.0272 µM and < 0.0131 µM,0.0118,0.0285,0.0203,0.0444 µM and 0.0193 µM,0.0121,0.0336 µM and 0.0214 µM,0.0154,0.0353,0.0249,0.103 µM and 0.0128 µM,0.0515,0.219 µM and 0.315 µM,0.0178,0.0395
COc1cc(NS(C)(=O)=O)ccc1Cc1c2ccccc2nc2ccccc12,0.139,1.53 µM,0.135,1.93,0.396,2.01 µM,0.192,1.65 µM,0.179,6.03,0.121,1.11 µM,0.0571,0.649 µM,0.129,1.14
COc1cc2c(cc1O)c(=O)n(CCN(C)C)c1c3cc4c(cc3ncc21)OCO4,< 0.01,1.24 µM,0.0117,1.25,0.177,–,0.0291,0.192 µM,< 0.01,19.9,0.0121,0.0312 µM,< 0.01,1.94 µM,0.0325,0.455
COc1ccc2nc3c(cc2c1)C(=O)CC(c1ccccc1)C3 (centres undefined),0.552,> 100 µM,0.383,> 100,0.469,> 100 µM,0.432,> 100 µM,> 100,> 100,0.979,44.5 µM,0.595,> 58.1 µM,–,> 100
O=[N+]([O-])c1ccc(N=Nc2c(Cl)cc(O)cc2Cl)cc1,2.26,5.79 µM,0.722,3.08,1.41,3.36 µM,–,–,1.18,7.73,1.48,3.55 µM,2.45,11.9 µM,0.285,2.01
Cc1ccc2[nH]c(O)c(N=Nc3ccccc3[N+](=O)[O-])c2c1,–,> 100 µM,–,12.2,–,> 40.3 µM,–,7.9 µM,–,> 29.4,–,> 100 µM,–,> 100 µM,–,6.55
O=C(Nc1n[nH]c2nc(-c3ccc(O)cc3)c(Br)cc12)C1CC1,3.11,16.5 µM,1.9,> 25,1.54,7.76 µM,4.62,12.5 µM,4.74,16.5,0.607,4.07 µM,3.8,20.4 µM,8.66,18.3
CN(/N=C/c1ccccc1O)c1ccc2ccccc2n1,–,> 100 µM,–,> 100,–,65.2 µM,–,47.8 µM,–,53.8,–,> 100 µM,–,41.3 µM,–,> 100
OCCN(CCO)c1nc(N2CCCCC2)c2nc(N(CCO)CCO)nc(N3CCCCC3)c2n1,–,> 100 µM,–,> 100,–,> 100 µM,–,46 µM,–,–,–,41.8 µM,–,> 100 µM,–,36.4
COc1ccc(C2CC(c3ccc(OC)cc3O)=NN2c2ccc(S(N)(=O)=O)cc2)cc1 (centres undefined),6.74,91.9 µM,4.47,69.3,5.14,> 100 µM,20.2,> 100 µM,34.1,> 100,14.9,> 100 µM,44.5,> 100 µM,3.27,32.8
COc1ccc2c(c1)C(=O)c1c-2c(N2CCN(C(=O)CCNCCNCCN)CC2)nc2ccccc12,18.8,47.8 µM,1.85,3.7,4.94,62.2 µM,2.78,6.9 µM,4.97,20.3,17.6,36.6 µM,–,–,2.44,10.6
Cc1nc2ccccc2c(/C=C/c2ccccc2)c1C(=O)/C=C/c1ccc(C(F)(F)F)cc1,1.14,2.44 µM,0.226,1.16,–,–,1.71,3.18 µM,–,–,1.73,3.13 µM,–,–,–,–
O=C1c2cc3c(cc2-c2c1c1ccc(F)cc1c(=O)n2C[C@H](O)[C@H](O)[C@H](O)CO)OCO3,–,–,–,–,–,–,0.209,0.831 µM,0.0704,2.97,0.141,0.277 µM,0.199,1.59 µM,0.243,0.896
O=C(CCCC(=O)N/N=C/c1cc(Cl)ccc1O)N/N=C\c1cc(Cl)ccc1O,1.98,> 100 µM,3.75,> 100,3.98,> 100 µM,–,–,2.5,> 100,2.5,> 100 µM,6.75,> 100 µM,–,–
CC[C@]12C=CCN3CC[C@@]4(c5ccc(OC)cc5N(C)[C@H]4[C@@](O)(C(=O)OC)[C@@H]1OC(=O)CCC(=O)O[C@H]1CC[C@H]4[C@@H]5CC[C@H]6CC(=O)CC[C@]6(C)[C@H]5CC[C@]14C)[C@@H]32,–,–,1.02,10.1,3.16,> 100 µM,2.98,57.7 µM,4.81,> 100,1.65,4.03 µM,3.66,61.2 µM,1.83,9.72
COc1ccc(C2=NN(C(C)=O)C(c3ccc(Oc4ccnc5cc(Cl)ccc45)c(OC)c3)C2)cc1 (centres undefined),> 100,> 100 µM,2.61,> 100,> 100,> 100 µM,–,–,9.28,> 100,> 100,> 100 µM,> 100,> 100 µM,3.03,15.4
